Test results from ChEMBL document CHEMBL1201862, “PubChem BioAssay data set” (2004).
Calls of active or inactive are those of the source.

Columns and labels:
[1] = Luminescence Cell-Based Dose Confirmation HTS to Identify Activators of 5'UTR Stem-Loop Driven Alpha-Synuclein mRNA Translation in H4 Neuroglioblastoma Cells. [Related pubchem assays: 1829 (Project Summary), 1814 (Primary HTS)]; format: functional
[2] = Luminescence Cell-Based Dose Response HTS to Identify Activators of Luciferase Translation or Activity in H4 […] Cells. [Related pubchem assays: 1829 (Project Summary), 1814 (Primary HTS)]; format: functional
T-cell = experiment: loss of vesicle association with mouse CD8+ T cells – mouse 2C CD8+ T cells, flow cytometry, dose response (AID 485284); format: functional
H4 = experiment: Luminescence Cell-Based Dose Response HTS to Identify Activators of 5'UTR Stem-Loop Driven Prion Protein mRNA Translation in H4 Neuroglioblastoma Cells. [Related pubchem assays: 1829 (Project Summary), 1814 (Primary HTS)]; format: functional; details: Homo sapiens
[3] = target: DNA damage-inducible transcript 3 protein (Mus musculus, UniProt P35639); format: functional, Cricetulus griseus
X-box-binding protein 1 = X-box-binding protein 1 (Homo sapiens, UniProt P17861); format: functional, Cricetulus griseus;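 also: confirmatory dose-response counter-screen serving a CHOP assay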
[4] = Vero E6 cell cytotoxicity, dose response, cytotoxicity control for non-replicating M. tuberculosis project, secondary assay (AID 492998); format: functional, VeroE6; details: Vero C1008
[5] = luciferase reporter signal reduction – luminescence, H4-C neuroglioblastoma cells, dose response (AID 2458); format: functional, cell-based;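 also: H4 neuroglioblastoma cells stably carrying a luciferase reporter gene fusion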
[6] = luciferase reporter signal suppression in cells – H4 neuroglioma cells, luminescence, dose response (AID 1990); format: functional, cell-based
BJ [7] = experiment: BJ-TERT fibroblast viability loss – cell-based, RAS-independent, luminescence, dose response (AID 1933); format: functional; details: Homo sapiens
[8] = DRD fibroblast viability loss – cell-based, non-viral oncogenic, luminescence, dose response (AID 1934); format: functional; details: Homo sapiens
cells = format: functional, cell-based
BJ [9] = experiment: cells; format: functional, cell-based; details: Homo sapiens
[10] = Luminescence Cell-Based Dose HTS Response to Identify Inhibitors of 5'UTR Stem-Loop Driven Prion Protein mRNA Translation in H4-C Neuroglioblastoma Cells. [Related pubchem assays (depositor defined):AID1814, AID1827]; format: functional
[11] = Luminescence Cell-Based Dose Response HTS to Identify Activators of Luciferase Translation or Activity in H4-C Neuroglioblastoma Cells. [Related pubchem assays: 1829 (Project Summary), 1814 (Primary HTS)]; format: functional
[12] = Luminescence Cell-Based Dose Confirmation HTS to Identify Inhibitors of 5'UTR Stem-Loop Driven Alpha-Synuclein mRNA Translation in H4 Neuroglioblastoma Cells. [Related pubchem assays: 1827 (Project Summary), 1813 (Primary HTS)]; format: functional
[13] = alpha-synuclein stem-loop translation blockers – luminescence, H4 neuroglioblastoma cells, dose confirmation, confirmation (AID 2454); format: functional, cell-based;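 also: H4 neuroglioblastoma cells carrying an alpha-synuclein 5'UTR luciferase reporter; potency for inhibition of the luciferase signal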
[14] = Luminescence Cell-Based Dose Response HTS to Identify Inhibitors of Luciferase Translation or Activity in H4-C Neuroglioblastoma Cells. [Related pubchem assays: 1813 (Primary HTS), 1827 (Project Summary)]; format: functional
[15] = Luminescence Cell-Based Dose Retest to Confirm Activators of 5'UTR Stem-Loop Driven Alpha-Synuclein mRNA Translation in H4 Neuroglioblastoma Cells. [Related pubchem assays (depositor defined):AID1813, AID1829]; format: functional
BJ [16] = experiment: BJ-TERT-LT-ST fibroblast viability loss – cell-based, RAS-independent, luminescence, dose response (AID 1935); format: functional; details: Homo sapiens;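 also: BJ fibroblasts immortalized with TERT plus LT and ST oncogenes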
[17] = alpha-synuclein stem-loop luciferase translation blockers – H4 neuroglioma cells, luminescence, confirmation (AID 1988); format: functional, cell-based
[18] = Luminescence Cell-Based Dose Response HTS to Identify Activators of 5'UTR Stem-Loop Driven Prion Protein mRNA Translation in H4-C Neuroglioblastoma Cells. [Related pubchem assays: 1829 (Project Summary), 1814 (Primary HTS)]; format: functional
[19] = target: T1, Ubiquitin-conjugating enzyme E2 N (Homo sapiens, UniProt P61088); format: functional
T1 sequence (P61088 whole entry): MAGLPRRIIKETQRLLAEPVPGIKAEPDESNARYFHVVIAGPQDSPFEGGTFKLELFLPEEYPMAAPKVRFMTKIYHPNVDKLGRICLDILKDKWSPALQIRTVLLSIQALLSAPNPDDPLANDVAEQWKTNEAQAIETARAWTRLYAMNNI

[20] = target: T2, Type-1 angiotensin II receptor (Homo sapiens, UniProt P30556); experiment: agonist activity at AGTR1 – cell-based, uHTS hits, selectivity assay for APJ receptor agonist project, dose response (AID 488865); format: functional;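 also: beta-arrestin recruitment to AT1 measured by enzyme fragment complementation luminescence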
T2 sequence (P30556 whole entry): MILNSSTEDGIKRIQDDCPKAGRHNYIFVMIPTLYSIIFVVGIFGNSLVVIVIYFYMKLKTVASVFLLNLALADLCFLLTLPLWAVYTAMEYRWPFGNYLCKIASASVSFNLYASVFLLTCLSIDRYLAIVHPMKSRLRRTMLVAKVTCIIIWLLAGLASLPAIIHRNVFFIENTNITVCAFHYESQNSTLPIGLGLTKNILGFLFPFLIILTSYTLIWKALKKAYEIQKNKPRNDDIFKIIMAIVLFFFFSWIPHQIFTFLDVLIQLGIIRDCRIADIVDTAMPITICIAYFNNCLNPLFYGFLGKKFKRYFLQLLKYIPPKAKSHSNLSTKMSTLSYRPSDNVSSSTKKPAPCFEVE

[21] = target: T3, DNA repair protein RAD52 homolog (Homo sapiens, UniProt P43351); format: functional, biochemical
T3 sequence (P43351 whole entry): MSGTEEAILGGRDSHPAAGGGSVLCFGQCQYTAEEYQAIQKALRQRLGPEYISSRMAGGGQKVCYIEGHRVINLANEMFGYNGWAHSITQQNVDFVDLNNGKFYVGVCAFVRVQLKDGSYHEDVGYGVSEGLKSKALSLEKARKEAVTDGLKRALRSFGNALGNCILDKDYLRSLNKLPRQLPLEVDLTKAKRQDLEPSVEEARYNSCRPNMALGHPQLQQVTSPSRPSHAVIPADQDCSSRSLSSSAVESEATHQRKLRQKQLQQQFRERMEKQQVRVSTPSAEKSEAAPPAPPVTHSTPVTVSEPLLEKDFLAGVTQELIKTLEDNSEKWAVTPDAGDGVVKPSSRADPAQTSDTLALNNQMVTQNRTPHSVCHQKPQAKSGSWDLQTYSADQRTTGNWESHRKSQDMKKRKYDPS

Bcl-2-related protein A1 = target: T4, Bcl-2-related protein A1 (Mus musculus, UniProt Q07440); format: functional;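 also: confirmatory dose–response counterscreen on Bfl-1, used to check hits from a UBC13 polyubiquitin inhibitor campaign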
T4 sequence (Q07440 whole entry): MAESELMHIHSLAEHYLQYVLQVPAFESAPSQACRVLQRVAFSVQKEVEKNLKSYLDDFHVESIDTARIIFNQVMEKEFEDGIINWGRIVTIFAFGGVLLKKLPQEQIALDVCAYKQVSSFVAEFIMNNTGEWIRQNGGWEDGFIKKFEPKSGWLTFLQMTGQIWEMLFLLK

[22] = target: T1, Ubiquitin-conjugating enzyme E2 N; format: functional; remark: listed apart in the source
Coagulation factor XII = target: T5, Coagulation factor XII (Homo sapiens, UniProt P00748); experiment: activated coagulation factor XII inhibitor potency, concentration-effect curve, cell-free (AID 716); format: functional
T5 sequence (P00748 whole entry): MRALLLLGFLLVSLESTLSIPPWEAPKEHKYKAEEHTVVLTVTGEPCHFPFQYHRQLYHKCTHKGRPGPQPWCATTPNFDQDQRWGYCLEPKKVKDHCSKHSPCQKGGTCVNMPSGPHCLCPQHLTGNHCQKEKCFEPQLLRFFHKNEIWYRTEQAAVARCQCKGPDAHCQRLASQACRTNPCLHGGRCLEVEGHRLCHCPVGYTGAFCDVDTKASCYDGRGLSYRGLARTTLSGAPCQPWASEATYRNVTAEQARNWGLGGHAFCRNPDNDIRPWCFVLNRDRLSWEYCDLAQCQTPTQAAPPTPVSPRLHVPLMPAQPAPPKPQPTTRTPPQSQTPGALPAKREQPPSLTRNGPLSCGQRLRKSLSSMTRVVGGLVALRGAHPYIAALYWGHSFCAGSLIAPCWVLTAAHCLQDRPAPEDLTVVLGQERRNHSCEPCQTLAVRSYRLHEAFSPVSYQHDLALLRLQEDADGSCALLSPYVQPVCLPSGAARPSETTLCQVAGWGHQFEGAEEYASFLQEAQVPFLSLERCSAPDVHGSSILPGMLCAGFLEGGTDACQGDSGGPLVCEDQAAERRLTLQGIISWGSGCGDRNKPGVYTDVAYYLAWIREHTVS

Chain of X-box-binding protein 1 (P17861 whole entry): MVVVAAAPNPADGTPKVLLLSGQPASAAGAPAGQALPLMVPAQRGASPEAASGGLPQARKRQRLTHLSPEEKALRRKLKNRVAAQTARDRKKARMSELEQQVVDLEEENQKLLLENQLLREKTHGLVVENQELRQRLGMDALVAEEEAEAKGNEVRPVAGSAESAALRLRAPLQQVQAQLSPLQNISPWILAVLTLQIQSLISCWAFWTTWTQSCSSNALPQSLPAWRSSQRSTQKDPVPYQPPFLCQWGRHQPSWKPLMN
Chain of DNA damage-inducible transcript 3 protein (P35639 whole entry): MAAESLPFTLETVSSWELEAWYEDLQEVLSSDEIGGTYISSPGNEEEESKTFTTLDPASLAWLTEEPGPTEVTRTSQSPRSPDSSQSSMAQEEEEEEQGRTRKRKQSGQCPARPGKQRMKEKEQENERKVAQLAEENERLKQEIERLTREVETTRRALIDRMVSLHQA

Question: With `O=C(CC1=NCCNC(c2ccccc2)C1)c1ccccc1O` (stereo not drawn) as the molecule, how does the EC50 [1] read?
Answer: The EC50 was 69.3 µM (active).

Question: What about the EC50 [2] of the same molecule?
Answer: Its EC50 is 43.1 µM (active).

Question: And the EC50 (T-cell)?
Answer: Its EC50 is 0.565 µM (active).

Question: What about the EC50 (H4) of the same molecule?
Answer: The EC50 was 67.6 µM (active).

Question: Which results are given for `O=C1NN(c2ccccc2)C(=O)/C1=C/c1ccc(Sc2ccc(Cl)cc2)o1`?
Answer: Absolute IC50 (CHOP) [3]: 10 µM; Absolute IC50 (XBP1) (X-box-binding protein 1): 10 µM; CC50 [4]: > 20 µM (active)

Question: For `O=C(c1ccc(C[S+]([O-])c2ccccc2Cl)o1)N1CCN(c2ccccc2)CC1` (stereo not drawn), which EC50 [5] is on record?
Answer: Its EC50 is 1.16 µM (active).

Question: And the EC50 [6]?
Answer: The EC50 was 8.01 µM (active).

Question: What about the EC50 (BJ [7]) of the same molecule?
Answer: Its EC50 is 1.18 µM (active).

Question: And the EC50 [8]?
Answer: The EC50 was 0.614 µM (active).

Question: What about the EC50 (cells) of the same molecule?
Answer: The EC50 was > 12 µM (not active).

Question: And the EC50 (BJ [9])?
Answer: Its EC50 is 25.9 µM (active).

Question: What about the EC50 [10] of the same molecule?
Answer: The EC50 was 0.464 µM (active).

Question: What about the EC50 [11] of the same molecule?
Answer: The EC50 was 1.46 µM (inconclusive).

Question: What about the EC50 [12] of the same molecule?
Answer: Its EC50 is 0.811 µM (active).

Question: And the EC50 [13]?
Answer: Its EC50 is 2.83 µM (active).

Question: What about the EC50 [14] of the same molecule?
Answer: The EC50 was 1.46 µM (active).

Question: What about the EC50 [15] of the same molecule?
Answer: The EC50 was 0.811 µM (inconclusive).

Question: And the EC50 (BJ [16])?
Answer: The EC50 was 1.22 µM (active).

Question: What about the EC50 [17] of the same molecule?
Answer: Its EC50 is < 0.1 µM (active).

Question: What about the EC50 [18] of the same molecule?
Answer: Its EC50 is 0.464 µM (inconclusive).

Question: Which IC50 [19] does the source give for `COc1cccc2sc(N(CCCN(C)C)C(=O)c3ccc(S(=O)(=O)N4CCc5ccccc5C4)cc3)nc12` here?
Answer: Its IC50 is 13.9 µM (active).

Question: What about the EC50 [20] of the same molecule?
Answer: Its EC50 is > 100 µM (inactive).

Question: And the AC50 [21]?
Answer: Its AC50 is 23.1 µM (active).

Question: And the IC50 (Bcl-2-related protein A1)?
Answer: The IC50 was > 20 µM (inactive).

Question: What about the IC50 [22] of the same molecule?
Answer: The IC50 was 10.8 µM (active).

Question: With `O=C(CN1C(=O)c2ccccc2S1(=O)=O)N1CCN(c2ccccc2F)CC1` as the molecule, how does the IC50 (Coagulation factor XII) read?
Answer: Its IC50 is > 50 µM (inactive).
